Measurements: publication PMC8344761 (Journal of Enzyme Inhibition and Medicinal Chemistry, 2021)

Assays:
[1] = target: C-Raf (Homo sapiens, UniProt P04049); assay: Raf kinase assay (Kinase HotSpot, Reaction Biology Corp.); type: biochemical; settings: fixed concentration 1 μM; mean of two independent experiments; read-out: Inhibition (%) C-Raf
Description: (§1) Compounds were delivered into each Raf reaction, followed ∼20 min later by addition of a mixture of ATP and [γ-^33P-ATP] (specific activity approx. 500 cpm/pmol, concentration as required) to a final concentration of 10 µM. After incubation for 40 min at 25 °C, the reaction was stopped by the addition of a 3% phosphoric acid solution. Then, the reaction was spotted onto a P30 filtermat, and unbound phosphate was removed by washing three times for 5 min in 75 mM phosphoric acid and once in methanol prior to drying and scintillation counting. […] IC50 values and curve fits were obtained using Prism (GraphPad Software, La Jolla, CA).

[2] = target: B-Raf (V600E) (Homo sapiens, UniProt P15056, V600E); assay: as above; type: biochemical; settings: fixed concentration 1 μM; mean of two independent experiments; B-Raf (V599E)
Description: as §1

[3] = target: B-Raf (Homo sapiens, UniProt P15056); assay: as above; type: biochemical; settings: fixed concentration 1 μM; mean of two independent experiments
Description: as §1

[4] = target: T1, A-Raf (Homo sapiens, UniProt P10398); assay: as above; type: biochemical; settings: fixed concentration 1 μM; mean of two independent experiments
T1 sequence (P10398 1-606): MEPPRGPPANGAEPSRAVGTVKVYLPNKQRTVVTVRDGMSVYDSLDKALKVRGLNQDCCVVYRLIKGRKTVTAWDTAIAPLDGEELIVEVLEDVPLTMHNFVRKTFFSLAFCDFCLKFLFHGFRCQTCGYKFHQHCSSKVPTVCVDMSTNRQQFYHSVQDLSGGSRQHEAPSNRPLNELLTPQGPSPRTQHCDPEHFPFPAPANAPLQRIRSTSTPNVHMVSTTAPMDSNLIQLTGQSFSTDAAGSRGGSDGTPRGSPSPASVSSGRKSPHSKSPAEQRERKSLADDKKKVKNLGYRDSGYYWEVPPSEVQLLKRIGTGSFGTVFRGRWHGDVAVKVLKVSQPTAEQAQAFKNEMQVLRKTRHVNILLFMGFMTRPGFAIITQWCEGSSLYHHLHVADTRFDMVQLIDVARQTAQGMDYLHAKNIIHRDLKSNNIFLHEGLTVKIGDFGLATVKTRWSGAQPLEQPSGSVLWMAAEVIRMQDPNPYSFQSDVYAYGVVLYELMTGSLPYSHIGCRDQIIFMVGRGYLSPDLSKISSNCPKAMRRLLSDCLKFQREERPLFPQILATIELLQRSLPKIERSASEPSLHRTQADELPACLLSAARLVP
Description: as §1, with “After incubation for 40 min at 25 °C, the reaction was stopped by the addition of a 3% phosphoric acid solution.” left out

Sequence of B-Raf (V600E) (P15056 whole entry V600E): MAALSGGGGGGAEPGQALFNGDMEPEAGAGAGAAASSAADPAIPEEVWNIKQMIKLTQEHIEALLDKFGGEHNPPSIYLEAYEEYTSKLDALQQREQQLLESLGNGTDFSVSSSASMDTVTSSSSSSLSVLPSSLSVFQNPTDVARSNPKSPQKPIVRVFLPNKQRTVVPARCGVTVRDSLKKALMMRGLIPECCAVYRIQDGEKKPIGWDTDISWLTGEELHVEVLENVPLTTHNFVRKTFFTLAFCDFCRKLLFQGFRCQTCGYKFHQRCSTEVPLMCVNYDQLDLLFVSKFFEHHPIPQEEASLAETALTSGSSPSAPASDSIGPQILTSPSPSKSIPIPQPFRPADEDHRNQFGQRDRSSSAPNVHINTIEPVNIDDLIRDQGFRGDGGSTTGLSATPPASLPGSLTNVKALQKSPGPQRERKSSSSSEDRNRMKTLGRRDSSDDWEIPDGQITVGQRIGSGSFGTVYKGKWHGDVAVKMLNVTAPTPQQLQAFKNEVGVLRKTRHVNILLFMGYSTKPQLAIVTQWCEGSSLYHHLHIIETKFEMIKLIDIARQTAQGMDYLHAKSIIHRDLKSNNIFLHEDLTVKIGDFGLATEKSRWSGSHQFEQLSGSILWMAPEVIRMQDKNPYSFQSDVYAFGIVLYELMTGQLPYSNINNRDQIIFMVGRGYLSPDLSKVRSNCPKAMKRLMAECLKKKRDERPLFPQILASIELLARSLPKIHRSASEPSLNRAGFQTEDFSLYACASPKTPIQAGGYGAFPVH
Sequence of B-Raf (P15056 whole entry): as the sequence (P15056 whole entry V600E) above, with E600V counted along it
Sequence of C-Raf (P04049 whole entry): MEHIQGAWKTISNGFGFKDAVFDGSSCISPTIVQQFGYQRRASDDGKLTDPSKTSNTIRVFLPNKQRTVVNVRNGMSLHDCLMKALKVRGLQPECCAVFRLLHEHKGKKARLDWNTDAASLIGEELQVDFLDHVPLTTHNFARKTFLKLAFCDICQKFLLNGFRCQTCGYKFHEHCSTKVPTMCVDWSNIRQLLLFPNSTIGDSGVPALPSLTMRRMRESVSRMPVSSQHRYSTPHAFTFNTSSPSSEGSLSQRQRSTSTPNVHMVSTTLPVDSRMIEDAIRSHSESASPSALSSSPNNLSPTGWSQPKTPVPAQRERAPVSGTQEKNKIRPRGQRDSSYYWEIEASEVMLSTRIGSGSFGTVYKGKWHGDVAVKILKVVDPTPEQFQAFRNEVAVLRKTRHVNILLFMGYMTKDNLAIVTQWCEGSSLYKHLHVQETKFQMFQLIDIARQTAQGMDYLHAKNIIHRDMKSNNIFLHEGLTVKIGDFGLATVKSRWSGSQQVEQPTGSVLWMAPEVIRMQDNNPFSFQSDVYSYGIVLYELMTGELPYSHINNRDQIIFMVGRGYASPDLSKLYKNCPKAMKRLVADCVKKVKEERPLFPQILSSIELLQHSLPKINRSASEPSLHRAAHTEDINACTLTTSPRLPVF

melting point | inhibition at 1 µM [1] | inhibition at 1 µM [2] | inhibition at 1 µM [3] | inhibition at 1 µM [4] | SMILES
193 °C | 0% | 9.4% | -15.4% | 17.6% | CNC(=O)c1cc(Oc2c(C)nc(N)c(C)c2C)ccn1 [Compound 3, 4-((6-Amino-2,4,5-trimethylpyridin-3-yl)oxy)-N-methylpicolinamide]
248 °C | 83.1% | 69.4% | 63% | 70.2% | CNC(=O)c1cc(Oc2c(C)nc(NC(=O)Nc3ccc(Cl)cc3)c(C)c2C)ccn1 [Compound 5, 4-((6–(3-(4-Chlorophenyl)ureido)-2,4,5-trimethylpyridin-3-yl)oxy)-N-methylpicolinamide]
229 °C | 46.4% | 48% | 24.8% | 49.3% | CNC(=O)c1cc(Oc2c(C)nc(NC(=O)Nc3ccccc3)c(C)c2C)ccn1 [Compound 7, N-Methyl-4-((2,4,5-trimethyl-6-(3-phenylureido)pyridin-3-yl)oxy)picolinamide]
253 °C | 78.2% | 77.9% | 61.5% | 78.4% | CNC(=O)c1cc(Oc2c(C)nc(NC(=O)Nc3ccc(F)cc3)c(C)c2C)ccn1 [Compound 8, 4-((6-(3-(4-Fluorophenyl)ureido)-2,4,5-trimethylpyridin-3-yl)oxy)-N-methylpicolinamide]
268 °C | 74.6% | 58.9% | 40.8% | 49.9% | CNC(=O)c1cc(Oc2c(C)nc(NC(=O)Nc3ccc(Br)cc3)c(C)c2C)ccn1 [Compound 9, 4-((6–(3-(4-Bromophenyl)ureido)-2,4,5-trimethylpyridin-3-yl)oxy)-N-methylpicolinamide]
262 °C | 83.1% | 74.7% | 60.4% | 61.5% | CNC(=O)c1cc(Oc2c(C)nc(NC(=O)Nc3ccc([N+](=O)[O-])cc3)c(C)c2C)ccn1 [Compound 10, N-Methyl-4-((2,4,5-trimethyl-6-(3-(4-nitrophenyl)ureido)pyridin-3-yl)oxy)picolinamide]
254 °C | 90.4% | 71.9% | 66.8% | 66.3% | CNC(=O)c1cc(Oc2c(C)nc(NC(=O)Nc3ccc(C(F)(F)F)cc3)c(C)c2C)ccn1 [Compound 11, N-Methyl-4-((2,4,5-trimethyl-6-(3-(4-(trifluoromethyl)phenyl)ureido)pyridin-3-yl)oxy)picolinamide]
185 °C | 37.5% | 22.2% | 6.6% | 12.4% | CNC(=O)c1cc(Oc2c(C)nc(NC(=O)Nc3ccc(OC(F)(F)F)cc3)c(C)c2C)ccn1 [Compound 12, N-Methyl-4-((2,4,5-trimethyl-6-(3-(4-(trifluoromethoxy)phenyl)ureido)pyridin-3-yl)oxy)picolinamide]
258 °C | 55.9% | 33.4% | 5.1% | 14.7% | CNC(=O)c1cc(Oc2c(C)nc(NC(=O)Nc3ccc(OC)cc3)c(C)c2C)ccn1 [Compound 13, 4-((6-(3-(4-Methoxyphenyl)ureido)-2,4,5-trimethylpyridin-3-yl)oxy)-N-methylpicolinamide]
247 °C | 73.6% | 62.2% | 44.5% | 51% | CNC(=O)c1cc(Oc2c(C)nc(NC(=O)Nc3ccc(C)cc3)c(C)c2C)ccn1 [Compound 14, N-Methyl-4-((2,4,5-trimethyl-6-(3-(p-tolyl)ureido)pyridin-3-yl)oxy)picolinamide]
188 °C | 76.1% | 39% | 43.2% | 33.6% | CNC(=O)c1cc(Oc2c(C)nc(NC(=O)Nc3ccc(C(C)C)cc3)c(C)c2C)ccn1 [Compound 15, 4-((6-(3-(4-Isopropylphenyl)ureido)-2,4,5-trimethylpyridin-3-yl)oxy)-N-methylpicolinamide]
206 °C | -6.4% | 7.1% | -7.1% | 8.6% | CNC(=O)c1cc(Oc2c(C)nc(NC(=O)Nc3c(C)cccc3C(C)(C)C)c(C)c2C)ccn1 [Compound 16, 4-((6-(3-(2-(Tert-Butyl)-6-methylphenyl)ureido)-2,4,5-trimethylpyridin-3-yl)oxy)-N-methylpicolinamide]
266 °C | 7.1% | 10.1% | -6.8% | 10.2% | CNC(=O)c1cc(Oc2c(C)nc(NC(=O)Nc3cccc4ccccc34)c(C)c2C)ccn1 [Compound 17, N-Methyl-4-((2,4,5-trimethyl-6-(3-(naphthalen-1-yl)ureido)pyridin-3-yl)oxy)picolinamide]
195 °C |  | 13.3% | -14.5% | 7.8% | CNC(=O)c1cc(Oc2c(C)nc(NC(=O)NCc3ccccc3)c(C)c2C)ccn1 [Compound 18, 4-((6-(3-Benzylureido)-2,4,5-trimethylpyridin-3-yl)oxy)-N-methylpicolinamide]
207 °C | 1.7% |  | -9.2% | -5.1% | CCCNC(=O)Nc1nc(C)c(Oc2ccnc(C(=O)NC)c2)c(C)c1C [Compound 19, N-Methyl-4-((2,4,5-trimethyl-6-(3-propylureido)pyridin-3-yl)oxy)picolinamide]
192 °C | -0.8% | 8.9% | -10% | 16.4% | CNC(=O)c1cc(Oc2c(C)nc(NC(=O)NC3CC3)c(C)c2C)ccn1 [Compound 20, 4-((6-(3-Cyclopropylureido)-2,4,5-trimethylpyridin-3-yl)oxy)-N-methylpicolinamide]
177 °C | 35.2% | 26.7% | 8.6% | 18.9% | CNC(=O)c1cc(Oc2c(C)nc(NC(=O)NC(=O)c3ccccc3)c(C)c2C)ccn1 [Compound 21, 4-((6-(3-Benzoylureido)-2,4,5-trimethylpyridin-3-yl)oxy)-N-methylpicolinamide]
187 °C | 5.7% | 2.6% |  | 9.4% | CNC(=O)c1cc(Oc2c(C)nc(NC(=O)NS(=O)(=O)c3ccc(C)cc3)c(C)c2C)ccn1 [Compound 22, N-Methyl-4-((2,4,5-trimethyl-6-(3-tosylureido)pyridin-3-yl)oxy)picolinamide]
205 °C | 6.7% | 11.6% | 0.3% | 11% | CNC(=O)c1cc(Oc2c(C)nc(NC(=O)Nc3ccc(N)cc3)c(C)c2C)ccn1 [Compound 23, 4-((6-(3-(4-Aminophenyl)ureido)-2,4,5-trimethylpyridin-3-yl)oxy)-N-methylpicolinamide]
206 °C | -8.3% | 4.4% | -19.3% | 11.9% | Cc1nc(NC(=O)Nc2ccc(Cl)c(C(F)(F)F)c2)c(C)c(C)c1OCc1ccccc1 [Compound 24, 1-(5-(Benzyloxy)-3,4,6-trimethylpyridin-2-yl)-3-(4-chloro-3-(trifluoromethyl)phenyl)urea]
242 °C | -7.7% | 8.7% |  | 7.9% | Cc1nc(NC(=O)Nc2ccc(Cl)c(C(F)(F)F)c2)c(C)c(C)c1O [Compound 25, 1-(4-Chloro-3-(trifluoromethyl)phenyl)-3-(5-hydroxy-3,4,6-trimethylpyridin-2-yl)urea]
